Measurements from the supplement of paper PMC8671470.
± gives the standard deviation of the averaged measurements.

Assays:
Settings in all cases: 72 h
HL-60 [1] = experiment: cell viability (% survival relative to DMSO control); higher = less cytotoxic
Outline: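 Four-parameter log-logistic fits in drc and PharmacoGx supplied area under the curve where it is given. Underlying viability came from CellTiter-Glo, normalised to DMSO and proteasome-inhibitor wells, with the proteasome inhibitor at 10 μM. HL-60 cells in RPMI 1640 plus 10% FBS had been rescreened against the full library at five tenfold concentrations of 1–10,000 nM, in duplicate on 384-well plates, with DMSO or 100 nM of one of three metabolic inhibitors, for 72 h at 37 °C, 5% CO2.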

NOMO-1 [2] = experiment: cell viability (% survival relative to DMSO control, bortezomib = 0%); higher = less cytotoxic
Outline: (§1)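 After 72 h at 37 °C with 5% CO2, cell viability in 384-well plates was measured by CellTiter-Glo luminescence. The plates held compounds pre-printed at 1, 10, 100, 1000 or 10000 nM in duplicate, and cells from 10 AML and 5 CML lines seeded at densities titrated to linear growth. Percent survival is the duplicate mean, normalised to vehicle as 100% and a 10 µM positive control as 0%.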

HEL [3] = experiment: as above
Outline: as §1

LAMA-84 [4] = experiment: as above
Outline: as §1

BV-173 [5] = experiment: as above
Outline: as §1

KU-812 [6] = experiment: as above
Outline: as §1

K-562 [7] = experiment: as above
Outline: as §1

ML-2 [8] = experiment: as above
Outline: as §1

SHI-1 [9] = experiment: as above
Outline: as §1

THP-1 [10] = experiment: as above
Outline: as §1

HL-60 [11] = experiment: as above
Outline: as §1

Mono-Mac-6 [12] = experiment: as above
Outline: as §1

MV4-11 [13] = experiment: as above
Outline: as §1

NOMO-1 [14] = test system: NOMO-1
Outline: (§2)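 Each of fifteen myeloid leukaemia cell lines was seeded in RPMI 1640 at a density titrated to its linear growth range. The cells were incubated for 72 h at 37 °C and 5% CO2 with compounds at five tenfold doses from 1 to 10,000 nM, in duplicate. After ATP luminescence was normalised to vehicle and to a positive control at 10 µM, four-parameter log-logistic curves were fitted. These curves gave the IC50.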

HEL [15] = test system: HEL
Outline: as §2

MOLM-13 = test system: MOLM-13
Outline: as §2

LAMA-84 [16] = test system: LAMA-84
Outline: as §2

BV-173 [17] = test system: BV-173
Outline: as §2

KU-812 [18] = test system: KU-812
Outline: as §2

K-562 [19] = test system: K-562
Outline: as §2

ML-2 [20] = test system: ML-2
Outline: as §2

KCL-22 = test system: KCL-22
Outline: as §2

SHI-1 [21] = test system: SHI-1
Outline: as §2

THP-1 [22] = test system: THP-1
Outline: as §2

HL-60 [23] = test system: HL-60
Outline: as §2

KG-1 = test system: KG-1
Outline: as §2

Mono-Mac-6 [24] = test system: Mono-Mac-6
Outline: as §2

MV4-11 [25] = test system: MV4-11
Outline: as §2

Cc1ccccc1C(C(=O)NC1CCCCC1)N(C(=O)Cn1ccnc1C)c1cccc(F)c1 (stereo not given) [AGI-5198]
cell viability [%], HL-60 [1]
Settings | 0.001 µM | 0.01 µM | 0.1 µM | 1 µM | 10 µM
co-treatment: AZD3965 100 nM | 95.1 ± 5.2 | 98.5 ± 3.8 | 93.2 ± 6.7 | 91.8 ± 9.9 | 100.5 ± 0.15
co-treatment: DMSO vehicle | 98.5 ± 2.9 | 106 ± 3.2 | 104 ± 7.8 | 99.4 ± 1.1 | 95.7 ± 5.1
co-treatment: GSK2194069 100 nM | 103 ± 7.5 | 101 ± 5.5 | 88.5 ± 15 | 101 ± 1.5 | 106 ± 5.5
co-treatment: pictilisib 100 nM | 98.4 ± 13 | 114 ± 16 | 103 ± 3.8 | 102 ± 0.28 | 104 ± 26

cell viability [%]
Settings | 1 nM | 10 nM | 100 nM | 1000 nM | 10000 nM
BV-173 [5] | 88.3 | 103 | 107 | 104 | 95.2
HEL [3] | 95.4 | 104 | 106 | 99.4 | 101
HL-60 [11] | 107 | 106 | 99.5 | 102 | 116
K-562 [7] | 98.5 | 101 | 103 | 96.5 | 104
KU-812 [6] | 97.7 | 105 | 109 | 92.1 | 103
LAMA-84 [4] | 97.6 | 104 | 115 | 97.2 | 99.9
ML-2 [8] | 96.8 | 106 | 122 | 103 | 95.1
MV4-11 [13] | 94 | 102 | 91.5 | 91.4 | 115
Mono-Mac-6 [12] | 92.8 | 107 | 100 | 104 | 99
NOMO-1 [2] | 96 | 103 | 107 | 100 | 102
SHI-1 [9] | 94.9 | 92.7 | 107 | 96.2 | 99.1
THP-1 [10] | 96.9 | 100 | 107 | 101 | 100

Settings | IC50 (cell viability) [µM]
BV-173 [17] | > 10
HEL [15] | > 10
HL-60 [23] | > 10
K-562 [19] | > 10
KCL-22 | > 10
KG-1 | > 10
KU-812 [18] | > 10
LAMA-84 [16] | > 10
ML-2 [20] | > 10
MOLM-13 | > 10
MV4-11 [25] | > 10
Mono-Mac-6 [24] | > 10
NOMO-1 [14] | > 10
SHI-1 [21] | > 10
THP-1 [22] | > 10

CC(C)(C#N)c1cc(Cn2cncn2)cc(C(C)(C)C#N)c1 [Anastrozole]
cell viability [%], HL-60 [1]
Settings | 0.001 µM | 0.01 µM | 0.1 µM | 1 µM | 10 µM
co-treatment: AZD3965 100 nM | 97.5 ± 3.3 | 101.3 ± 0.95 | 102 ± 1.2 | 102 ± 1.9 | 100 ± 6.9
co-treatment: DMSO vehicle | 101 ± 6.5 | 100 ± 2.8 | 101 ± 2.3 | 101.7 ± 0.4 | 102 ± 2.8
co-treatment: GSK2194069 100 nM | 96.7 ± 12 | 94.4 ± 5.3 | 120 ± 3.8 | 102 ± 1.1 | 100 ± 13
co-treatment: pictilisib 100 nM | 104 ± 4.6 | 92.3 ± 1.6 | 106 ± 13 | 108 ± 7.9 | 101 ± 3.9

cell viability [%]
Settings | 1 nM | 10 nM | 100 nM | 1000 nM | 10000 nM
BV-173 [5] | 104 | 89.4 | 104 | 95.9 | 104
HEL [3] | 92.8 | 96.5 | 105 | 97.1 | 105
HL-60 [11] | 103 | 99.7 | 89.3 | 93.8 | 91.6
K-562 [7] | 109 | 95.3 | 106 | 93.2 | 92.1
KU-812 [6] | 86.1 | 90.6 | 100 | 90.5 | 90
LAMA-84 [4] | 93.5 | 97.6 | 96.3 | 99.9 | 97.7
ML-2 [8] | 106 | 100 | 106 | 90.5 | 93
MV4-11 [13] | 116 | 99.4 | 92.9 | 87.8 | 96.4
Mono-Mac-6 [12] | 103 | 102 | 111 | 102 | 89.7
NOMO-1 [2] | 90.6 | 103 | 96.4 | 99.6 | 102
SHI-1 [9] | 108 | 94.5 | 102 | 101 | 103
THP-1 [10] | 102 | 93.4 | 99.8 | 99.9 | 96.3

Settings | IC50 (cell viability) [µM]
BV-173 [17] | > 10
HEL [15] | > 10
HL-60 [23] | > 10
K-562 [19] | > 10
KCL-22 | > 10
KG-1 | > 10
KU-812 [18] | > 10
LAMA-84 [16] | > 10
ML-2 [20] | > 10
MOLM-13 | > 10
MV4-11 [25] | > 10
Mono-Mac-6 [24] | > 10
NOMO-1 [14] | > 10
SHI-1 [21] | > 10
THP-1 [22] | > 10

O=C(O)C1=CC(=C(c2ccc(O)c(C(=O)O)c2)c2ccc(O)c(C(=O)O)c2)C=CC1=O [Aurintricarboxylic acid]
cell viability [%], HL-60 [1]
Settings | 0.001 µM | 0.01 µM | 0.1 µM | 1 µM | 10 µM
co-treatment: AZD3965 100 nM | 95.9 ± 1.1 | 101 ± 7 | 101 ± 8.6 | 94.5 ± 6.3 | 98.9 ± 3.7
co-treatment: DMSO vehicle | 101 ± 3.1 | 81.6 ± 29 | 106 ± 5.5 | 104 ± 6.9 | 97.6 ± 3.1
co-treatment: GSK2194069 100 nM | 94.1 ± 0.2 | 82.3 ± 19 | 98.7 ± 6.2 | 98.3 ± 11 | 82.5 ± 11
co-treatment: pictilisib 100 nM | 99.3 ± 2.4 | 99.3 ± 8.4 | 96.2 ± 11 | 101 ± 17 | 103 ± 9.1

cell viability [%]
Settings | 1 nM | 10 nM | 100 nM | 1000 nM | 10000 nM
BV-173 [5] | 114 | 104 | 107 | 88.3 | 9.49
HEL [3] | 108 | 85.9 | 115 | 92.5 | 21.8
HL-60 [11] | 103 | 87.8 | 103 | 91.1 | 111
K-562 [7] | 88.9 | 104 | 82 | 101 | 128
KU-812 [6] | 98 | 102 | 106 | 96 | 102
LAMA-84 [4] | 105 | 102 | 100 | 89 | 106
ML-2 [8] | 107 | 97.7 | 97.5 | 96.4 | 92.9
MV4-11 [13] | 103 | 100 | 86.3 | 97 | 71.9
Mono-Mac-6 [12] | 98.6 | 98.6 | 104 | 105 | 89.7
NOMO-1 [2] | 95.8 | 108 | 109 | 90.1 | 80.9
SHI-1 [9] | 104 | 91.8 | 99 | 100 | 114
THP-1 [10] | 105 | 101 | 109 | 97.5 | 99.4

Settings | IC50 (cell viability) [µM]
BV-173 [17] | 2.72
HEL [15] | 3.3
HL-60 [23] | > 10
K-562 [19] | > 10
KCL-22 | > 10
KG-1 | > 10
KU-812 [18] | > 10
LAMA-84 [16] | > 10
ML-2 [20] | > 10
MOLM-13 | 2.64
MV4-11 [25] | > 10
Mono-Mac-6 [24] | > 10
NOMO-1 [14] | > 10
SHI-1 [21] | > 10
THP-1 [22] | > 10
